Values of other authors as cited in US20180110888A1, “COMBINATIONS FOR THE TREATMENT OF CANCER” (BAYER PHARMA AKTIENGESELLSCHAFT, priority 2012, published 2018).

Assays:
[1] = single dose 250 kBq per kg body weight
[2] = test system: bone metastases
[3] = test system: CRPC (Castration Resistant Prostate Cancer) and bone metastases
[4] = phase 2 studies, patients with CRPC and bone metastases

| excreted by feces (in vivo) | excreted by urine (in vivo) | terminal half life (in vivo) | effect of administration with food (oral administration with food) | SMILES | cases of grade 3 neutropenia [1] | observed adverse reactions [1] | safety profile ([2]; phase 1 and 2 studies, patients with bone metastases) | effect on disease-related biomarkers (bone ALP, PSA) [2, 4] | effect on pain [2, 4] | reduction in risk of death compared with placebo ([3]; overall survival, patients with CRPC and bone metastases) | median survival longer than placebo by ([3]; patients with CRPC and bone metastases) | time to first skeletal-related event ([3]; versus placebo) |
| --- | --- | --- | --- | --- | --- | --- | --- | --- | --- | --- | --- | --- |
| ~88% | ~5% | 12 ± 5 h | increases absorption | C[C@]12CC[C@H](O)CC1=CC[C@@H]1[C@@H]2CC[C@]2(C)C(c3cccnc3)=CC[C@@H]12 [abiraterone] |  |  |  |  |  |  |  |  |
|  |  |  |  | [Cl][223Ra][Cl] [radium-223, Radium-223 dichloride] | 1/5 | diarrhea and reversible myelosuppression | minimal myelotoxicity | improves disease-related biomarkers | reduces pain | 30.5% | 2.8 months | significantly prolonged |
